Columns and labels:
mushroom tyrosinase = assay: Enzyme kinetics for tyrosinase; assay type: biochemical
Description: (§1) Mushroom tyrosinase (400 units/mg) and plasma MAO (1000 units/gm) were obtained from Sigma Chemical Co. (St. Louis, Mo., USA). A reaction mixture consisted of a substrate of 7 to 8 different concentrations (40 to 500 μM for mushroom tyrosinase and 20 to 200 μM for MAO) and of either mushroom tyrosinase (2.5 μg) or MAO (10 μg) in 1.0 mL of 0.05M sodium phosphate buffer, pH 6.8 and 7.4 respectively. The reactions were carried out at 37° C. in a shaking water bath, and stopped by taking 100 μL of the reaction mixture and adding it to 900 μL of 0.4M HCLO4. The disappearance of substrate was followed using HPLC (high pressure liquid chromatography) Km and Vmax values were calculated from the Lineweaver-Burk plots.
^a mushroom tyrosinase; 11 unit/ml of tyrosinase was used. One enzyme
unit will cause an increase in A280 of 0.001 per min at pH 6.8 at
25° C. using Ltyrosine as substrate.

[1] = test system: plasma monoamine oxidase (MAO); assay: Enzyme kinetics for monoamineoxidase (plasma MAO); assay type: biochemical
Description: as §1

black guinea pig skin = conditions: topical application, cited from earlier work

NCCSc1ccc(O)cc1 [4-S-CAP, 4-S-cysteaminylphenol, reference compound]
Substrate for tyrosinase (mushroom tyrosinase; in words): substrate for both plasma MAO and tyrosinase
Km (mushroom tyrosinase; mushroom tyrosinase, pH 6.8, 37° C.): 117 µM
Substrate for plasma MAO ([1]; in words): substrate for both plasma MAO and tyrosinase
Km ([1]; plasma MAO, pH 7.4, 37° C.): 52.6 µM
Inflammatory changes of the skin (black guinea pig skin; guinea pigs): inflammatory changes of the skin of the guinea pigs was prominent
Depigmentation of black guinea pig skin (black guinea pig skin): demonstrated depigmenting properties
